According to paper PMC5499824 (Nucleic Acids Research, 2017):
Substitutions are numbered along the chain they refer to.

How the values were obtained:
hNSun6 [1] = target: T1, hNSun6 (Homo sapiens, UniProt Q8TEA1); experiment: isothermal titration calorimetry; type: binding
T1 sequence (Q8TEA1 1-469): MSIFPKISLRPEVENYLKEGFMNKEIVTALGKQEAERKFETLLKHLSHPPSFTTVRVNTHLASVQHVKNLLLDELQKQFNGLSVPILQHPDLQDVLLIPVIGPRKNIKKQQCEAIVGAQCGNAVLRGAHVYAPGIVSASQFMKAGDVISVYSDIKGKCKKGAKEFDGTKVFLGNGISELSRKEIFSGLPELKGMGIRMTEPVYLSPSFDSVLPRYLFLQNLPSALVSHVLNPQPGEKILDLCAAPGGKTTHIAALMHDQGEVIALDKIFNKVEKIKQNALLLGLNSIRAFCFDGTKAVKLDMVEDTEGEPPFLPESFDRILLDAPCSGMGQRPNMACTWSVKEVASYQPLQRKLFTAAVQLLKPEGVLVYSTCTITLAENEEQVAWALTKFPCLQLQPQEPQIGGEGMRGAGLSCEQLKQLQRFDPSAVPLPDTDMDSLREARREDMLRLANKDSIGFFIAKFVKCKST

hNSun6 [2] = target: T2, hNSun6 (Homo sapiens, UniProt Q8TEA1, K248A); experiment: isothermal titration calorimetry; type: binding
T2 sequence (Q8TEA1 1-469 K248A): T1 sequence (Q8TEA1 1-469) with K248A

`C[S+](CC[C@H](N)C(=O)O)C[C@H]1O[C@@H](n2cnc3c(N)ncnc32)[C@H](O)[C@@H]1O` (some centres unmarked) [SAM] gave a Kd (hNSun6 [1]) of 1.7 µM and a Kd (hNSun6 [2]) of 10.3 µM.
